Assay results from US20240210394A1, “MICROORGANISM CAPTURE FROM ANTIMICROBIAL-CONTAINING SOLUTION” (MOMENTUM BIOSCIENCE LIMITED, priority 2019, published 2024).

How the values were obtained:
Candida albicans = assay: Blood culture time to positivity (flip time), bead rescue vs no-rescue control; format: cell-based; details: 4000 cfu/5 mL Blood
Method: (§1) Day 1: […] (or 30° C. for C. neoformans) in a shaking incubator. Day 2: […] (or 30° C. for C. neoformans) for 2 h for outgrowth. • Antibiotic added to whole blood (defibrinated horse blood) at required level • Whole blood as no-antibiotic control • Test dilution(s) of organism added to blood+antibiotic or blood only at 10 μL per mL of blood (sufficient prepared for experiment requirements) • 100 μL plate count sample taken (TO sample) • 2-hour incubation (static) at 37° C. […] […] on V&P magnet for 10 min then remove supernatant • 7. […] […] for 3 min then remove supernatant • 9. Resuspend beads in 1 mL Detergent-free Wash Buffer (DWB) off magnet then replace on DynaMag-2 magnet • 10. […] for 3 min then remove supernatant • 11. Resuspend beads in 1 mL DWB, add to new blood culture bottle (using vial adapter) and start incubation (adapter removed) […] The “Flip” time is when a bottle turns positive as determined by the automated blood culture cabinet, which records time to positivity.

Cryptococcus neoformans = assay: as above; format: cell-based; details: antibiotic 2 mg/L blood; 102200 cfu/5 mL Blood
Method: as §1

E. coli [1] = details: cited from earlier work
E. coli [2] = assay: Blood culture time to positivity (flip time), bead rescue vs no-rescue control; format: cell-based; details: for Flip time: Bead rescue; for Bead Rescue Flip time / Control Flip time in Days: antibiotic 0.075 mg/L blood
Method: (§2) Day 1: Prepare overnight culture of test organism in blood/broth medium (50:50 blood:broth) and incubate at 37° C. in a shaking incubator.
Day 2: Prepare ten-fold serial dilution of overnight culture in blood/broth as required and incubate at 37° C. for 2 h for outgrowth.
Add 5 mL of spiked blood+beads (set 1) and 5 mL of spiked blood/Abx+beads (set 3) to blood culture bottles (BioMerieux SA culture bottle) using a vial adapter (West Pharmaceutical Services, Inc. PA, US).
Remove the adaptor and incubate the blood culture bottles in the automated blood culture cabinet (BacT/ALERT BioMerieux) for up to 5 days.
(§3) Record the “Flip” time of each bottle or bottle result at the end of 5 days incubation. The “Flip” time is when a bottle turns positive as determined by the automated blood culture cabinet, which records time to positivity.
(§4) Day 1: Prepare overnight culture of test organism in blood/broth medium (50:50 blood:broth) and incubate at 37° C. (or 30° C. for C. neoformans) in a shaking incubator.
(or 30° C. for C. neoformans) for 2 h for outgrowth. • Antibiotic added to whole blood (defibrinated horse blood) at required level • Whole blood as no-antibiotic control • Test dilution(s) of organism added to blood+antibiotic or blood only at 10 μL per mL of blood (sufficient prepared for experiment requirements) • 100 μL plate count sample taken (TO sample) • 2-hour incubation (static) at 37° C. (or 30° C. for C. neoformans) • 100 μL plate count sample taken (T2 sample) • 5 mL of spiked blood+abx or blood only added to blood culture bottle (using vial adapter) and incubation started (adapter removed) • 5 mL of spiked blood+abx or blood only (from same source) treated with Momentum Capture Beads as below: • 1. Capture Beads diluted in the relevant Capture Reagent—50 μL beads:700 μL capture reagent per clean-up • 2. 750 μL of diluted beads added to 50 mL conical centrifuge tube • 3. 5 mL of transfer medium added to tube • 4. 5 mL of spiked blood+abx or blood only added to tube • 5. […] Magnetise on V&P magnet for 10 min then remove supernatant • 7. Resuspend beads in 1 mL Detergent-free Wash Buffer (DWB) off magnet and transfer to 2 mL Eppendorf flip-top tube on DynaMag-2 magnet • 8. Magnetise for 3 min then remove supernatant • 9. Resuspend beads in 1 mL Detergent-free Wash Buffer (DWB) off magnet then replace on DynaMag-2 magnet • 10. Magnetise for 3 min then remove supernatant • 11. Resuspend beads in 1 mL DWB, add to new blood culture bottle (using vial adapter) and start incubation (adapter removed)
Momentum Capture Beads diluted in the relevant Capture Reagent—50 μL beads:700 μL capture reagent per clean-up • 2. 750 μL of diluted beads added to 50 mL conical centrifuge tube • 3. 5 mL of transfer medium added to tube • 4. 5 mL of spiked blood+abx or blood only added to tube • 5. […] Magnetise on V&P magnet for 10 min then remove supernatant • 7. Resuspend beads in 1 mL Detergent-free Wash Buffer (DWB) off magnet and transfer to 2 mL Eppendorf flip-top tube on DynaMag-2 magnet • 8. Magnetise for 3 min then remove supernatant • 9. Resuspend beads in 1 mL Detergent-free Wash Buffer (DWB) off magnet then replace on DynaMag-2 magnet • 10. Magnetise for 3 min then remove supernatant • 11. Resuspend beads in 1 mL DWB, add to an unused blood culture bottle (BioMerieux FA+culture bottle) using vial adapter and start incubation (adapter removed)

S. pneumoniae = assay: as above; format: cell-based; details: for Flip time: Bead rescue; for Flip time / Flip time in Days: 12600 cfu/5 ml blood; for Flip time in Days: Control (FA plus bottle); for Bead Rescue Flip time / Control Flip time in Days: antibiotic 1 mg/L blood
Method: as §4
(or 30° C. for C. neoformans) for 2 h for outgrowth. • Antibiotic added to whole blood (defibrinated horse blood) at required level • Whole blood as no-antibiotic control • Test dilution(s) of organism added to blood+antibiotic or blood only at 10 μL per mL of blood (sufficient prepared for experiment requirements) • 100 μL plate count sample taken (TO sample) • 2-hour incubation (static) at 37° C. (or 30° C. for C. neoformans) • 100 μL plate count sample taken (T2 sample) • 5 mL of spiked blood+abx or blood only added to blood culture bottle (using vial adapter) and incubation started (adapter removed) • 5 mL of spiked blood+abx or blood only (from same source) treated with Momentum Capture Beads as below: • 1. Capture Beads diluted in the relevant Capture Reagent—50 μL beads:700 μL capture reagent per clean-up • 2. 750 μL of diluted beads added to 50 mL conical centrifuge tube • 3. 5 mL of transfer medium added to tube • 4. 5 mL of spiked blood+abx or blood only added to tube • 5. Incubate on ITL TherMix (32.5° C./30 min/1000 rpm—ramped speed protocol) • 6. Magnetise on V&P magnet for 10 min then remove supernatant • 7. Resuspend beads in 1 mL Detergent-free Wash Buffer (DWB) off magnet and transfer to 2 mL Eppendorf flip-top tube on DynaMag-2 magnet • 8. Magnetise for 3 min then remove supernatant • 9. Resuspend beads in 1 mL Detergent-free Wash Buffer (DWB) off magnet then replace on DynaMag-2 magnet • 10. Magnetise for 3 min then remove supernatant • 11. Resuspend beads in 1 mL DWB, add to new blood culture bottle (using vial adapter) and start incubation (adapter removed)
as §3, §2
Momentum Capture Beads diluted in the relevant Capture Reagent—50 μL beads:700 μL capture reagent per clean-up • 2. 750 μL of diluted beads added to 50 mL conical centrifuge tube • 3. 5 mL of transfer medium added to tube • 4. 5 mL of spiked blood+abx or blood only added to tube • 5. Incubate on ITL TherMix (32.5° C./30 min/1000 rpm—ramped speed protocol) • 6. Magnetise on V&P magnet for 10 min then remove supernatant • 7. Resuspend beads in 1 mL Detergent-free Wash Buffer (DWB) off magnet and transfer to 2 mL Eppendorf flip-top tube on DynaMag-2 magnet • 8. Magnetise for 3 min then remove supernatant • 9. Resuspend beads in 1 mL Detergent-free Wash Buffer (DWB) off magnet then replace on DynaMag-2 magnet • 10. Magnetise for 3 min then remove supernatant • 11. Resuspend beads in 1 mL DWB, add to an unused blood culture bottle (BioMerieux FA+culture bottle) using vial adapter and start incubation (adapter removed)
To compare organism capture and rescue from FA plus bottles, on S. pneumoniae in Ceftriaxone. Reproduce experiment by Flayhart et al. 2007 testing antibiotic concentrations of 250, 125 and 94 mg/L and also include concentrations of 50 and 10 mg/L.
In the table below, “control” represents samples processed using FA plus bottles (also referred to as “BC” in the final column) and “bead rescue” refers to samples processed according to the methods of the invention.

## C[C@@H]1[C@H](O)[C@@H](C)/C=C/C=C/C=C/C=C/C=C/C=C/C=C/[C@H](O[C@@H]2O[C@H](C)[C@@H](O)[C@H](N)[C@@H]2O)C[C@@H]2O[C@](O)(C[C@@H](O)C[C@@H](O)[C@H](O)CC[C@@H](O)C[C@@H](O)CC(=O)O[C@H]1C)C[C@H](O)[C@H]2C(=O)O [Amphoteracin B]
Candida albicans; antibiotic 1 mg/L blood
  Bead Rescue Flip time: 1.27 days
  Control Flip time: 2.22 days
Candida albicans; antibiotic 2 mg/L blood
  Bead Rescue Flip time: 1.85 days
  Control Flip time: 2.98 days
Cryptococcus neoformans
  Bead Rescue Flip time: 3.14 days
  Control Flip time: 3.7 days

## CO/N=C(\C(=O)N[C@@H]1C(=O)N2C(C(=O)O)=C(COC(C)=O)CS[C@H]12)c1csc(N)n1 [Cefotaxime]
E. coli [1]
  MIC: ≤1 µg/mL
E. coli [2]; Cefotaxime 100 mg/L blood, 50800 cfu/5 mL blood
  Flip time: 0.39 days
E. coli [2]; Cefotaxime 100 mg/L blood, 508000 cfu/5 mL blood
  Flip time: 0.31 days
E. coli [2]; Control (FA plus bottle), Cefotaxime 100 mg/L blood, 50800 cfu/5 mL blood
  Flip time in Days: Neg
E. coli [2]; Control (FA plus bottle), Cefotaxime 100 mg/L blood, 508000 cfu/5 mL blood
  Flip time in Days: Neg

## CO/N=C(\C(=O)N[C@@H]1C(=O)N2C(C(=O)O)=C(CSc3nc(=O)c(=O)[nH]n3C)CS[C@H]12)c1csc(N)n1 [Ceftriaxone]
S. pneumoniae; Ceftriaxone 10 mg/L blood
  Flip time: 0.46 days
  Flip time in Days: Neg
S. pneumoniae; Ceftriaxone 50 mg/L blood
  Flip time: 0.47 days
  Flip time in Days: Neg
S. pneumoniae; Ceftriaxone 94 mg/L blood
  Flip time: 0.52 days
  Flip time in Days: Neg
S. pneumoniae; Ceftriaxone 125 mg/L blood
  Flip time: 0.49 days
  Flip time in Days: Neg
S. pneumoniae; Ceftriaxone 250 mg/L blood
  Flip time: 0.51 days
  Flip time in Days: Neg

## CO/N=C(\C(=O)N[C@@H]1C(=O)N2C(C(=O)O)=C(CSc3nc(=O)c(O)nn3C)CS[C@H]12)c1csc(N)n1 [Celtriaxone]
S. pneumoniae; 200 cfu/5 mL Blood
  Bead Rescue Flip time: 0.86 days
  Control Flip time in Days: Neg
S. pneumoniae; 10000 cfu/5 mL Blood
  Bead Rescue Flip time: 0.71 days
  Control Flip time in Days: Neg
S. pneumoniae; 100000 cfu/5 mL Blood
  Bead Rescue Flip time: 0.68 days
  Control Flip time in Days: Neg

## O=C(O)c1cn(C2CC2)c2cc(N3CCNCC3)c(F)cc2c1=O [Ciprofloxacin]
E. coli [2]; Ciprofloxacin 0.075 mg/L blood, 11400 Cfu/mL (first set, r5-r10), bead rescue with named bead type, antibiotic-labelled line = BC control without beads
  Flip time In Days: Negative
E. coli [2]; Ciprofloxacin 0.075 mg/L blood, 11400 Cfu/mL (second set, r11-r16), bead rescue with named bead type, antibiotic-labelled line = BC control without beads
  Flip time In Days: Negative
E. coli [2]; Ciprofloxacin 0.075 mg/L blood, 380800 Cfu/mL (some rows print 360800), antibiotic-labelled line = BC control without beads
  Difference (Days) compared to BE: Negative
E. coli [2]; Ciprofloxacin 0.075 mg/L blood, 380800 Cfu/mL (some rows print 360800), bead rescue with named bead type, antibiotic-labelled line = BC control without beads
  Flip time in Days: Negative
E. coli [2]; Ciprofloxacin 0.075 mg/l blood, 11400 Cfu/mL (first set, r5-r10), antibiotic-labelled line = BC control without beads
  Difference (Days) compared to BE: Negative
E. coli [2]; Ciprofloxacin 0.075 mg/l blood, 11400 Cfu/mL (second set, r11-r16), antibiotic-labelled line = BC control without beads
  Difference (Days) compared to BE: Negative
E. coli [2]; Example 23, E. coli in blood containing 0.075 mg/L Ciprofloxacin
  No-rescue blood culture control result: negative after 5 days
E. coli [2]; Example 24, E. coli in blood containing 0.075 mg/L Ciprofloxacin
  Blood culture controls (no bead rescue) result: negative
E. coli [2]; 100000 cfu/5 mL Blood
  Bead Rescue Flip time: 0.68 days
  Control Flip time in Days: Neg
E. coli [2]; 1000000 cfu/5 mL Blood
  Bead Rescue Flip time: 0.61 days
  Control Flip time in Days: Neg
